Laboratory results: patent US20140045856A1, “4-Methyl-2,3,5,9,9b-pentaaza-cyclopenta[a]naphthalenes” (BOEHRINGER INGELHEIM INTERNATIONAL GMBH, priority 2012, published 2014)
Read-outs that look alike come from different tables or passages of the source.

Experiments:
PDE2A [1] = target: T1, PDE2A (Homo sapiens, UniProt O00408); assay: Radioactive PDE2 assay ([3H]cAMP SPA); assay type: biochemical
Procedure: a) Radioactive PDE2 Assay Protocol:
PDE 2A protein is expressed upon baculovirus infection in SF9 cells. The cells have been incubated upon infection for ˜3 days and protein production was confirmed by Western Blot. The cells were collected by centrifugation and the pellet frozen in liquid nitrogen before it was resuspended in PBS containing 1% Triton X-100 and protease inhibitors.
(§1) Into a 384 well plate (OptiPlate, white), the following components are pipetted (either manually or using automated pipetting devices):
(§2) 20 μl test-compound solution (test compound diluted in assay buffer at twofold the desired concentration)
+10 μl PDE 2A preparation (enzyme diluted in assay buffer to a concentration of 0.5 ng/μl protein)
+10 μl [^3H]cAMP (diluted in assay buffer to a concentration of 80 nM cAMP)
positive control: no inhibitor, DMSO at the concentration as used in the compound dilutions
negative control: no PDE 2 (SF9 lysate instead of SF9/PDE 2A lysate)
Calculation of % Inhibition:
(§3) The activity of the positive control (minus the negative control=background) is set to 100% and activity in the presence of compound is expressed relative to these 100%.
(§4) IC50 are calculated with GraphPadPrism or other suited software setting the positive control as 100 and the negative control as 0. For calculation of IC50 usually 11 dilutions of the test compound are selected.

PDE 10A = PDE 10A (Homo sapiens, UniProt Q9Y233); assay: Radioactive PDE10 assay ([3H]cAMP SPA); assay type: biochemical
PDE 10A, sequence (Q9Y233 whole entry, species assumed): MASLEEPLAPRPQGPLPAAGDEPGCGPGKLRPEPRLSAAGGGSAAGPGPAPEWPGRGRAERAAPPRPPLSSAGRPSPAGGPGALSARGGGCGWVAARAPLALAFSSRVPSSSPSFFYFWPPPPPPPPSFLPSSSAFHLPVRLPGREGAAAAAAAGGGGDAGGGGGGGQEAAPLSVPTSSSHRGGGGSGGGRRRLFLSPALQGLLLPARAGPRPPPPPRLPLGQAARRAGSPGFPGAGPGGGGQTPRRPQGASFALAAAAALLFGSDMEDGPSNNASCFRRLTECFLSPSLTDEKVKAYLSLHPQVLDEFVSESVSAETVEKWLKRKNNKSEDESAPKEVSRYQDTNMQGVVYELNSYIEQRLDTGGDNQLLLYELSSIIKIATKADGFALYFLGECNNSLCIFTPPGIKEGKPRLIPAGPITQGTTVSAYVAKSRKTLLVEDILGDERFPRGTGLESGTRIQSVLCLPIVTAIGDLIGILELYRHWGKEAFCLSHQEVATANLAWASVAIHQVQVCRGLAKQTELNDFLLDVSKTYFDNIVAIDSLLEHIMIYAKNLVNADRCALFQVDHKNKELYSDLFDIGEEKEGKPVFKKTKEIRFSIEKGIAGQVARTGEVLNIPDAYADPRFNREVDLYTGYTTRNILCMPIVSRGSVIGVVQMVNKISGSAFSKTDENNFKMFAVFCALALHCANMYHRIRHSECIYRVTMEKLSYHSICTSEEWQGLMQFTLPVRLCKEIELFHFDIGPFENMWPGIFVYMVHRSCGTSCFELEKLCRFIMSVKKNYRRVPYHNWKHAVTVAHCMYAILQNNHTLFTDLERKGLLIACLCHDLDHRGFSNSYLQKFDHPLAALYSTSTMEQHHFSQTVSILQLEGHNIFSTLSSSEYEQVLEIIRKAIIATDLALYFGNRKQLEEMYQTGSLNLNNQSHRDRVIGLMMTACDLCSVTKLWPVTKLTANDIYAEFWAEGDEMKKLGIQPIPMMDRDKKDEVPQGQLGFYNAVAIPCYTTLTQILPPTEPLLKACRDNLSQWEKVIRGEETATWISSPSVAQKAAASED
Procedure: as §3, §4
protein concentration: 75 pg/μl
In detail the protocol is as follows:
as §1, §2
+10 μl PDE 10A preparation (enzyme diluted in assay buffer to a concentration of 0.3 ng/μl protein)
+10 μl cAMP tracer (diluted in assay buffer to a concentration of 80 nM cAMP, specific activity ˜4 mCi/l)
After addition of all 3 components the plates are shortly spun and incubated at room temperature for 60 min. The reaction is stopped by the addition of 20 μl Yttrium SPA PDE Beads containing 18 mM zinc sulphate in water
PDE 10A protein is expressed upon baculovirus infection in SF9 cells. The cells have been incubated upon infection for ˜3 days and protein production was confirmed by Western Blot. The cells were collected by centrifugation and the pellet frozen in liquid nitrogen before it was resuspended in PBS containing 1% Triton X-100 and protease inhibitors.

PDE2A [2] = target: T1, PDE2A; assay: PDE 2A assay with fluorescent substrate (IMAP, fluorescence polarization); assay type: biochemical; details: read-out: PDE2 IC50
PDE10 = PDE10 (Homo sapiens, UniProt Q9Y233); assay: PDE10 assay with fluorescent substrate (IMAP, fluorescence polarization); assay type: biochemical
PDE10, sequence (Q9Y233 whole entry, species assumed): as above

[3] = Metabolic stability in pooled liver microsomes; assay type: in vitro ADME; details: human liver microsomes, 37° C., 1 mg/mL microsomal protein, test compound 1 μM, NADPH
Procedure: The metabolic stability of the compounds according to the invention has been investigated as follows:
The metabolic degradation of the test compound was assayed at 37° C. with pooled liver microsomes from various species. The final incubation volume of 100 μl per time point contains TRIS buffer pH 7.6 at room temperature (0.1 M), magnesium chloride (5 mM), microsomal protein (1 mg/mL for human and dog, 0.5 mg/mL for other species) and the test compound at a final concentration of 1 μM. Following a short preincubation period at 37° C., the reactions were initiated by addition of betanicotinamide adenine dinucleotide phosphate, reduced form (NADPH, 1 mM), and terminated by transferring an aliquot into solvent after different time points. […] The half-life was determined by the slope of the semi-logarithmic plot of the concentration-time profile.

hERG channel = hERG channel (Homo sapiens, UniProt Q12809); assay: hERG channel assay (whole-cell patch clamp, HEK293 cells transfected with hERG cDNA); assay type: cell-based; details: 35° C.
hERG channel, sequence (Q12809 whole entry): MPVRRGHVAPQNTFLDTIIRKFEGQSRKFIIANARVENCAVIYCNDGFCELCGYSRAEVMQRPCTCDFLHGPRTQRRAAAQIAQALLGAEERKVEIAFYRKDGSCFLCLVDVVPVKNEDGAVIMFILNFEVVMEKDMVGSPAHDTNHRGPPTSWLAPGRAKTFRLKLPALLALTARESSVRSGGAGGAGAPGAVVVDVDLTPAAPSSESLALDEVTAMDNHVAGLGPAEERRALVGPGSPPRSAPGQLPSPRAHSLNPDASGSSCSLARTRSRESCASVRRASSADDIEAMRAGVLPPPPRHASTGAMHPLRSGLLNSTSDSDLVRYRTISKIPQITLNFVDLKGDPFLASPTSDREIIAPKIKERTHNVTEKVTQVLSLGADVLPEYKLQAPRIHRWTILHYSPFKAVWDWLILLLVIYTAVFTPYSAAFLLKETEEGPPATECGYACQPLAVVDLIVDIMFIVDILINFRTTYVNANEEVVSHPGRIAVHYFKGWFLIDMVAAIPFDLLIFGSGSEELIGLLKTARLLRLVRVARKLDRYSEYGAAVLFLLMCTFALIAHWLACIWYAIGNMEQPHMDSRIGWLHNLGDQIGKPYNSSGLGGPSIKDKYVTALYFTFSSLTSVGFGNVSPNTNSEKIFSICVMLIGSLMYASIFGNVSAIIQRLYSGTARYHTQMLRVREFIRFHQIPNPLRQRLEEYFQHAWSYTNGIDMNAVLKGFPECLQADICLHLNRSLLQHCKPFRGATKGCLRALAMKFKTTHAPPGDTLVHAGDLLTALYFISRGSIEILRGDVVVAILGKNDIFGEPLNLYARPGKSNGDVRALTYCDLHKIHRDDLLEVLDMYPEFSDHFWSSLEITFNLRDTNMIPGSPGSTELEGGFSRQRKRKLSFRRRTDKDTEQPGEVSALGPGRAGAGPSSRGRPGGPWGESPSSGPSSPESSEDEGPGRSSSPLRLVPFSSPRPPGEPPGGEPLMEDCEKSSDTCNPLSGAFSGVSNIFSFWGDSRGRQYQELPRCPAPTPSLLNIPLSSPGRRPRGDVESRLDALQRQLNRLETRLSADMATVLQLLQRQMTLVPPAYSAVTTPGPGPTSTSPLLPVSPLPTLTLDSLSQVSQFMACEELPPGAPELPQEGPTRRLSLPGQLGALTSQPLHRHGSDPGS
Description: hERG (Human Ether-à-Go-Go-Related Gene)-Channel Assay
hERG channel inhibition of compounds of the present invention has been investigated as follows:
HEK (human embryonic kidney) 293 cells were stably transfected with hERG cDNA. Cells were superfused with a bath solution containing (mM): NaCl (137), KCl (4.0), MgCl2 (1.0), CaCl2 (1.8), Glucose (10), HEPES (10), pH 7.4 with NaOH. Patch pipettes were made from borosilicate glass tubing using a horizontal puller and filled with pipette solution containing (mM): K-aspartate (130), MgCl2 (5.0), EGTA (5.0), K2ATP (4.0), HEPES (10.0), pH 7.2 with KOH. Resistance of the microelectrodes was in the range between 2 and 5 MΩ.
Stimulation and Recording:
Membrane currents were recorded using an EPC-10 patch clamp amplifier and PatchMaster software. hERG-mediated membrane currents were recorded at 35° C., using the whole-cell configuration of the patch-clamp technique. Transfected HEK293 cells were clamped at a holding potential of −60 mV and hERG-mediated inactivating tail currents were elicited using a pulse pattern with fixed amplitudes (activation/inactivation: 40 mV for 2000 ms; recovery: […]; ramp to 40 mV in 2 ms; inactivating tail current: 40 mV for 50 ms) repeated at 15 s intervals. During each inter-pulse interval 4 pulses scaled down by a factor of 0.2 were recorded for a P/n leak subtraction procedure. […] compensation was employed up to a level that safely allowed recording devoid of ringing.
Compound Preparation and Application:
The different concentrations of the test compound were applied sequentially on each of the different cells investigated. A steady state level of baseline current was measured for at least 6 sweeps prior to the application of the first test compound concentration.
The test compound was dissolved in DMSO to yield a master stock solution which was diluted further in DMSO to stock solutions needed for the lower concentrations. Final dilutions in extracellular buffer were prepared freshly from these stocks by a 1:1000 dilution step each before starting the experiments.
Data analysis and IC50 determination:
Peak current amplitudes were measured 3 ms after the ramp to +40 mV. For baseline and each concentration the peak currents of the three last sweeps before application of the next concentration were averaged. Residual currents ( 1/10) were calculated for each cell as the fraction of actual average peak current and average baseline peak current.
The logistic concentration-response curve of the following form was fitted to the residual current data using a genetic algorithm:
C: actual concentration of compound (in μM) IC50: half-inhibitory concentration (in μM) p: Hill slope

[4] = Animal experiments and sample analysis: plasma, brain and CSF concentration; assay type: in vivo; details: rat; for concentration at 0.5 h: 0.5 h between administration and CSF sampling; for concentration at 0.5 h / concentration at 2 h: doses of 10.0 or 5 μmol/kg; for concentration at 2 h / Kp at 2 h: 2 h between administration and CSF sampling
Procedure: Test compounds were administered to animals (rat) different routes at doses of 10.0 or 5 μmol/kg, (both oral and intravenous). After compound administration, the animals were sacrificed in a CO2 chamber and CSF samples were carefully collected by puncture of the cisterna magna. Immediately after CSF sampling, blood was taken by heart puncture and brains were dissected out. Blood was collected in EDTA-coated microvettes and plasma was prepared by centrifugation. Concentration of the test compounds in plasma, CSF or brain homogenate was determined using HPLC-MS-MS.

[5] = brain, read-out: c(brain)/c(plasma)

T1 sequence (O00408 whole entry, species assumed): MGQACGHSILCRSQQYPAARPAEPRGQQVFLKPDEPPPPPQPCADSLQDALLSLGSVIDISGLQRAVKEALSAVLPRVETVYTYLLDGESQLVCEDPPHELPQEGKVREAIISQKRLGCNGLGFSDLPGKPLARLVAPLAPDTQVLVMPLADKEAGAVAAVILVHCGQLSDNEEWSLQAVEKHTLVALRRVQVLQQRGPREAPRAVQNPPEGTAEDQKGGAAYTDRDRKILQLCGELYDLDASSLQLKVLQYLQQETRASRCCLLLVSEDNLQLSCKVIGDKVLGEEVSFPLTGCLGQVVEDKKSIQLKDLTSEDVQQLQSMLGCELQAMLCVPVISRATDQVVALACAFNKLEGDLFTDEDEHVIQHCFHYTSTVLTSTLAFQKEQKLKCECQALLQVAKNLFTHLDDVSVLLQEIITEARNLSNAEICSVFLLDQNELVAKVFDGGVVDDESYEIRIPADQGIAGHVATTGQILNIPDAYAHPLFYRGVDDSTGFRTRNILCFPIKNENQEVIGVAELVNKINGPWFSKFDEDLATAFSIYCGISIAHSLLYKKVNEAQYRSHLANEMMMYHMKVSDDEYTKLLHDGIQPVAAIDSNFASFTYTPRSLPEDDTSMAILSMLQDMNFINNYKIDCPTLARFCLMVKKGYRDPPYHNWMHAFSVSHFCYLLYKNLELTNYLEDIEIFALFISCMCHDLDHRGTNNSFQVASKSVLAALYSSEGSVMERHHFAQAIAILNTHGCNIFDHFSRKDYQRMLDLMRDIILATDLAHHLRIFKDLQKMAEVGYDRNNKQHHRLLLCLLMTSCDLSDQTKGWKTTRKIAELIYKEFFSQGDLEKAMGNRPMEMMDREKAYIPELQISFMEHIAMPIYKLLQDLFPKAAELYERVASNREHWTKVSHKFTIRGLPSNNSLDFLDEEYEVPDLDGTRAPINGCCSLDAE

Compound | IC50 (PDE2A [1]) [nM] | IC50 (PDE 10A) [nM] | IC50 (PDE2A [2]) [nM] | IC50 (PDE10) [nM] | Half-life - t½ [3] [min] | further results
Cc1nc2cccnc2n2c(-c3cc(OCCCO)ccc3Cl)nnc12 [Example 13] | 53 | 2190 | 95 | 6360 | 130 | IC50 (hERG channel): > 10 µM
Cc1nc2cccnc2n2c(-c3cc(OCCO)ccc3Cl)nnc12 [Example 15] | 40 |  | 112 | 1120 |  | 
COCCCOc1ccc(Cl)c(-c2nnc3c(C)nc4ccc(C)nc4n23)c1 [Example 31] | 7 | 1900 | 8 | 2900 |  | 
Cc1nc2cccnc2n2c(-c3cc(OC4CCOC4)ccc3Cl)nnc12 (stereo not shown) [Example 22] | 115 |  | 207 |  |  | 
Cc1ccc2nc(C)c3nnc(-c4cc(O)ccc4Cl)n3c2n1 [Example 2] | 4 | 40 | 3 | 33 |  | 
Cc1nc2cccnc2n2c(-c3cc(O)ccc3F)nnc12 [Example 4] | 138 | 441 | 120 | 256 |  | 
Cc1ccc2nc(C)c3nnc(-c4cccc(OCCCO)c4)n3c2n1 [Example 36] | 219 | 850 |  |  |  | 
Cc1nc2cccnc2n2c(-c3cc(OC4CCC(F)(F)CC4)ccc3Cl)nnc12 [Example 21] | 70 | 2820 | 22 | 7050 | 130 | IC50 (hERG channel): > 10 µM
Cc1ccc2nc(C)c3nnc(-c4cc(OC[C@H](C)O)ccc4Cl)n3c2n1 [Example 34] | 9 |  | 17 |  | 130 | concentration at 0.5 h ([4]; brain, read-out: conc brain): 146 nM; concentration at 0.5 h ([4]; plasma, read-out: conc plasma): 223 nM; concentration at 0.5 h ([4]; read-out: conc CSF): 19 nM; IC50 (hERG channel): > 10 µM
Cc1ccc2nc(C)c3nnc(-c4cc(OCCCOC(F)(F)F)ccc4Cl)n3c2n1 [Example 33] | 4 |  | 5 |  |  | 
Cc1ccc2nc(C)c3nnc(-c4cccc(O)c4)n3c2n1 [Example 3] | 155 | 411 |  |  |  | 
Cc1ccc2nc(C)c3nnc(-c4cc(OC5CCC(F)(F)CC5)ccc4Cl)n3c2n1 [Example 30] | 27 | 3920 | 20 | 2570 | 130 | 
Cc1ccc2nc(C)c3nnc(-c4cc(OCCCO)ccc4Cl)n3c2n1 [Example 27] |  | 970 |  | 958 |  | IC50 (hERG channel): > 10 µM
Cc1nc2cccnc2n2c(-c3cc(O)ccc3Cl)nnc12 [Example 1] |  | 421 |  | 355 | 130 | 
Cc1nc2cccnc2n2c(-c3cc(OC4CCC(O)C4)ccc3Cl)nnc12 (stereo not shown) [Example 40] | 80 |  | 77 |  |  | 
Cc1nc2cccnc2n2c(-c3cc(O[C@H]4CCOC4)ccc3Cl)nnc12 [Example 24] | 138 |  |  |  |  | 
Cc1nc2cccnc2n2c(-c3cc(O[C@@H]4CCOC4)ccc3Cl)nnc12 [Example 23] | 71 |  | 216 |  |  | 

Continued, in another order:

IC50 (PDE2A [1]) [nM] | IC50 (PDE 10A) [nM] | IC50 (PDE2A [2]) [nM] | IC50 (PDE10) [nM] | Half-life - t½ [3] [min] | Compound | further results
9 |  | 17 |  | 130 | Cc1ccc2nc(C)c3nnc(-c4cc(OC[C@@H](C)O)ccc4Cl)n3c2n1 [Example 35] | 
55 | 3260 | 38 | 7330 |  | Cc1nc2cccnc2n2c(-c3cc(OCC4CCOC4)ccc3Cl)nnc12 (stereo not shown) [Example 25] | 
17 | 2380 | 37 | 5100 |  | COCCOc1ccc(Cl)c(-c2nnc3c(C)nc4ccc(C)nc4n23)c1 [Example 29] | 
 |  | 33 | 3760 | 130 | Cc1nc2cccnc2n2c(-c3cc(OCC4(O)CCC4)ccc3Cl)nnc12 [Example 49] | concentration at 2 h ([4]; brain, read-out: conc brain): 47 nM; Kp at 2 h [4, 5]: 0.2; concentration at 2 h ([4]; plasma, read-out: conc plasma): 239 nM; concentration at 2 h ([4]; read-out: conc CSF): 13 nM; Kp at 2 h ([4]; read-out: c(CSF)/c(plasma)): 0.06; IC50 (hERG channel): > 10 µM
417 | 1960 |  |  |  | Cc1nc2cccnc2n2c(-c3cc(OC(C)C4CCOCC4)ccc3Cl)nnc12 (stereo not shown) [Example 38] | 
 |  | 45 | 3870 | 130 | Cc1nc2cccnc2n2c(-c3cc(CCC(C)(C)O)ccc3Cl)nnc12 [Example 64] | concentration at 2 h ([4]; brain, read-out: conc brain): 254 nM; Kp at 2 h [4, 5]: 0.5; concentration at 2 h ([4]; plasma, read-out: conc plasma): 783 nM; concentration at 2 h ([4]; read-out: conc CSF): 37 nM; Kp at 2 h ([4]; read-out: c(CSF)/c(plasma)): 0.06; IC50 (hERG channel): > 10 µM
 | 2760 |  |  | 130 | Cc1nc2cccnc2n2c(-c3cc(OC4CCOCC4)ccc3Cl)nnc12 [Example 20] | concentration at 0.5 h ([4]; brain, read-out: conc brain): 272 nM; concentration at 0.5 h ([4]; plasma, read-out: conc plasma): 338 nM; concentration at 0.5 h ([4]; read-out: conc CSF): 37 nM; IC50 (hERG channel): > 10 µM
146 | 3010 |  |  |  | Cc1nc2cccnc2n2c(-c3cc(OCCC(C)O)ccc3Cl)nnc12 (stereo not shown) [Example 19] | 
171 | 3080 |  |  |  | Cc1nc2cccnc2n2c(-c3cc(OCC4(C)COC4)ccc3Cl)nnc12 [Example 37] | 
116 | 1380 |  |  |  | Cc1nc2cccnc2n2c(-c3cc(OCCCO)ccc3F)nnc12 [Example 26] | 
914 | 2100 |  |  |  | Cc1nc2cccnc2n2c(-c3cc(OC4CCC(O)CC4)ccc3Cl)nnc12 (stereo not shown) [Example 39] | 
